The values that follow are results of earlier work, collected in paper PMC2864005 (Archives of biochemistry and biophysics, 2010).

Structures are written as SMILES.

The data set relates to 3A4. The following applies: after an initial burst.

For the compound `CCC(C)n1ncn(-c2ccc(N3CCN(c4ccc(OCC5COC(Cn6cncn6)(c6ccc(Cl)cc6Cl)O5)cc4)CC3)cc2)c1=O` (stereo not shown) [itraconazole], the Rate of metabolism was 0.0016 s⁻¹.
